These results are taken from patent publication US11472807B2, “Purine derivatives for use as medicament and for use in treating neurodegenerative or neuro-inflammatory disorders” (COMMISSARIAT À L'ENERGIE ATOMIQUE ET AUX ENERGIES …, priority 2017, dated 2022).

A short description of data set [1]: Pharmacokinetics of Aftin-5 in mice after single PO or IP dose. Particulars: for Tmax / Cmax / Kp: mouse; for Kp: brain/plasma, read-out: brain/plasma partition coefficient (Kpbrain/plasma). The format is in vivo. The source says:
In addition, pharmacokinetic experiments of Aftin-5 in mice confirmed the ability of the compound to reach the brain. The PK parameters are plotted in Table 3 below.
The brain/plasma partition coefficient (Kpbrain/plasma) was about 0.014 and 0.033 for oral and IP administration, respectively.

Data set [2] is described as follows: Brain and plasma exposure after chronic subcutaneous administration (Alzet osmotic pump). It is filed as in vivo, C57Bl/6J mice. Conditions: C57Bl/6J, mouse, sc, 30 mg/kg, 28 days, mice, read-out: brain/plasma partition coefficient (Kpbrain/plasma). As for the experimental part:
FIG. 5. Plots illustrating the effect of brain and plasma exposure after chronic subcutaneous administration of Aftin-5 to C57B16J mice. Due to short Aftin-5 elimination half-time, C57B1/6J mice were exposed subcutaneously to Aftin-5 (30 mg/kg) or vehicle (DMSO/PEG) during 28 days through an Alzet osmotic pump (pump 1004, Q=0.14 μL/hrs). Plasma was collected at different time points and 28 days after, both brain tissue and plasma were collected. Aftin-5 were extracted and quantified by LC-MS/MS (Quattro Premier). Aftin-5 concentrations in plasma (A) and brain (B) were expressed in nM. Data expressed as means+/−SEM from one experiment with n=4-5 mice/condition.
C57B1 were exposed subcutaneously to Aftin-5 using osmotic minipumps ([…]; Saint-Germain-Nuelles, France). Aftin-5 was dissolved in DMSO:propylene glycol:ethanol (45:45:10). Mice were treated with 1, 3 or 30 mg/Kg for 28 days. Filled pumps were left in saline overnight at 37° C. for priming. Mice were anesthetized with isoflurane (3-4% v/v, 1.5 mL/min) in an induction chamber and maintained under anesthesia through a mask. Mice were shaved on their back, disinfected and an incision made between the scapulae for pump implantation and finally closed with clips. 1% lidocaine gel was applied over the incision for local analgesia. Animals recovered from anesthesia in heated pads and immediately returned to the cages.

In data set [3] the test system is GFAP and Iba-1 (microglial/astrocytes phenotype). Nature of the data set: GFAP and Iba-1 mRNA in OHSC (RT-qPCR). It is filed as cell-based, mice. Particulars: 50 μM, 10 days. On the procedure: FIG. 9. Plots illustrating the effect of Aftin-5 on relative mRNA expression levels of GFAP (left panel) and Iba-1 (right panel) in organotypic hippocampal slice cultures (OHSC). OHSC culture media […] were replaced by incubation medium containing Aftin-5 (50 μM; A50) or vehicle (0.1% DMSO; Veh). 10 days later, total mRNA in lysate was isolated and purified, cDNAs were then synthesized from […] of total mRNA. cDNA were amplified by quantitative RT-PCR and the relative expression of specific genes was normalized to the housekeeping gene HPRT1 (2^−ΔCt). Mann-Whitney tests were performed and show no significant differences between Aftin-5 and control conditions. Data expressed as means+/−SEM from q=3 independent experiments with n=4-6 inserts/condition and 10 slices/insert. […]
(§1) The impact of Aftin-5 on gene expression of different biomarkers was determined by measuring mRNA levels of selected BDNF, CREB, PS95, INS Receptor/IGF-1 receptor, IL-1β, IL-6 in OHSC treated chronically with Aftin-5 or in a total brain from mice exposed to Aftin-5 at either 8 or 30 mg/Kg. […] Threshold cycles (Ct) of target gene and cyclophilin A (Ppia−control housekeeping gene) were recorded and gene expression was calculated as 2^−ΔΔCt(ΔΔCt=ΔCttreated−ΔCtcontrol, ΔCt=Cttarget−CtPpia). […]

In another data set the test system is InsR (insulin-receptor). Nature of the data set: Insulin receptor mRNA in OHSC (RT-qPCR). The format is cell-based, mice. Conditions: 50 μM for 10 days, P<0.05. On the procedure:
FIG. 12. Plots illustrating the effect of Aftin-5 on relative mRNA expression levels of murine insulin-like growth factor-1 receptor (IGF1-R; (A)) and murine insulin receptor (Insr; (B)) in organotypic hippocampal slice cultures (OHSC). OHSC culture media of OHSC were replaced by incubation medium containing Aftin-5 (50 μM; A50) or vehicle (0.1% DMSO; Veh). 10 days later, total mRNA in lysate was isolated and purified, cDNAs were then synthesized from […] of total mRNA. cDNAs were amplified by quantitative RT-PCR and the relative expression of specific genes was normalized to the housekeeping gene HPRT1 (2^−ΔCt) Mann-Whitney tests were performed and *p<0.05 indicates significant differences between Aftin-5 and control conditions. Data expressed as means+/−SEM from q=3 independent experiments with n=4-6 inserts/condition and 10 slices/insert. […]
as §1

The next data set can be described thus: in vitro. Conditions: rat.
[4] abbreviates: plasma, IP single dose 10 mg/kg.

Where two headings read alike, the source gives them in different places.

Protocol for in vitro: A 20% BSA gradient was used for isolation of capillaries. After a second enzymatic digestion, cells were plated in 75 cm^2 coated culture flasks in EBM medium completed by the EGM-2 MV Single Quots kit (Lonza, Basel, Switzerland). Cultures were maintained at 37° C. in a humidified 5% CO2 atmosphere for 5-6 days before being trypsinized and frozen.
The chambers containing human glial cells and brain endothelial cells were considered as the basolateral and apical compartment, respectively. The microplates were then incubated at 37° C. in a 5% CO2 atmosphere. Under these experimental conditions, brain endothelial cells formed a confluent monolayer within 15 days.
After checking BBB integrity, Transwells® with BEC monolayers were transferred to new plates. T buffer (150 mM NaCl, 5.2 mM KCl, 2.2 mM CaCl2, 0.2 mM MgCl2, 6 mM NaHCO3, 2.8 mM glucose and 5 mM Hepes) was added 1.5 mL to the basal chamber (B) and 0.5 ml to the apical chamber (A). […] The Papp value was calculated as followed: Papp=dQ/dT×A×C0 (1) where dQ/dT: amount of drug transported per time-point; A: membrane surface area; Co: donor concentration at time-point 0. […] The mass balance was calculated as follows: R (%)=([(Ap+Bs)/A0]×100 (2) where Ap and Bs are the amount of tested compounds in the apical and basal compartments, respectively. A0 is the initial amount in the donor compartment.

Regarding `CC[C@H](CO)Nc1nc(N(C)c2ccccc2)c2ncn(C(C)C)c2n1` [Aftin-5], the “AUC0-∞” value amounted to 441.51 nMh in data set [1] (brain, IP single dose 10 mg/kg); 115.25 nMh in data set [1] (brain, PO single dose 5 mg/kg); 13577.63 nMh in data set [1] (setting [4]). The “t^1/2” value in data set [1] (brain, IP single dose 10 mg/kg) is 0.6 h; in data set [1] (brain, PO single dose 5 mg/kg), 1.8 h; in data set [1] (setting [4]) it was around 1.2 h. For the same compound, the Tmax in data set [1] (brain, IP single dose 10 mg/kg) worked out at 4.98 min; in data set [1] (brain, PO single dose 5 mg/kg), 15 min; in data set [1] (setting [4]) it was 4.98 min; in data set [1] (plasma, PO single dose 5 mg/kg) it was 15 min. For the same compound, the Cmax in data set [1] (brain, ip, 10 mg/kg, IP single dose 10 mg/kg) is around 807 nM; in data set [1] (brain, po, 5 mg/kg, PO single dose 5 mg/kg), around 44.9 nM; in data set [1] (plasma, ip, 10 mg/kg, IP single dose 10 mg/kg), 22600 nM; in data set [1] (plasma, po, 5 mg/kg, PO single dose 5 mg/kg), 3890 nM. Also, the Kp in data set [1] (IP administration, single dose 10 mg/kg) was around 0.033; in data set [1] (oral administration, single dose 5 mg/kg), around 0.014. Moreover, the Kp at 672 h in data set [2] is around 0.44. Further, the “microglial/astrocytes phenotype (GFAP, Iba-1 mRNA)” value in data set [3] is on record as “does not affect”. Besides, the InsR-mRNA entry with InsR (insulin-receptor) is “increased dramatically”. This compound yielded a Papp at 60 min, 10 μM in the data set “in vitro” of around 35 ×10⁻⁶ cm/s.
